Reference: PMC8924752, “Functional characterization of the human Cdk10/Cyclin Q complex” (Open Biology, 2022)

How the values were obtained:
[1] = test system: Cdk10; set-up: method as in PMID 29251720; settings: MOLT4 lysates; cited from earlier work
[2] = target: T1, Cdk9 (Homo sapiens, UniProt P50750); test: Radiometric kinase assay, inhibition of Cdk9 (c-MYC substrate); format: biochemical; settings: 200 nM kinase, 1 mM ATP, 5 mM Mg2+, 50 µM c-MYC (17-167) as substrate
T1 construct: His; made in house; host or cells: Cdk9 in Sf9 insect cells; CycT1 (1-272) in E. coli

[3] = target: T2, Cdk10/CycQ (Homo sapiens, UniProt Q15131); test: Radiometric kinase assay, inhibition of Cdk10/CycQ (c-MYC substrate); format: biochemical; settings: for Times more potent towards Cdk9 than Cdk10: ratio of IC50 values Cdk10 vs Cdk9; for Cross reactivity with Cdk10 (effect of inhibitor on Cdk10): at conditions that result in full inhibition of their primary target, supplementary figure S3
T2 construct: We expressed the human full-length Cdk10/CycQ complex in Sf9 insect cells; MBP (followed by TEV site) (N, cleaved yes); made in house; host or cells: Sf9 insect cells (baculovirus); c-MYC substrate from E. coli BL21 pLysS
Description: Figure 3. […] (a) Chemical structures of the inhibitors tested against Cdk10/CycQ.
Kinase assays with recombinant proteins were performed in kinase assay buffer (50 mM Hepes pH7.6, 34 mM KCl, 7 mM MgCl2, 5 mM β-Glycerophosphate, 2.5 mM DTE). If not indicated otherwise, reactions contained 0.2 µM kinase, were started by the addition of ATP to 1 mM final concentration and incubated at 30°C in a shaking incubator.
For quantitative analysis, radioactive kinase assays were performed. Reactions were done in a total volume of 15 µl per sample. If not indicated otherwise, reactions contained 0.2 µM kinase, were started by addition of ATP to 1 mM containing 0.34 µCi γ[^32P] (Perkin Elmer) and incubated at 30°C in a shaking incubator. Reactions were stopped by adding EDTA to a final concentration of 50 mM. Samples were spotted onto Amersham Protran nitrocellulose membrane (GE Healthcare) filter sheets. Filters were washed three times for 5 min with PBS to remove free, non-reacted ATP. Samples were transferred to 4 ml liquid scintillation vials and immersed in 2 ml liquid scintillator (UltimaGold). Radioactivity was counted in a Beckman Liquid Scintillation Counter (Beckman-Coulter) for 1 min.
All compounds were solved at a stock concentration of 10 mM in DMSO and further pre-diluted in DMSO for dose–response measurement. For IC50 determination radioactive kinase assays were run as described above in presence of increasing concentration of inhibitor. For analysis, the data were normalized to the DMSO solvent control and the activity plotted against the inhibitor concentration. IC50 values were determined from duplicate measurements by sigmoidal curve fitting with a variable slope using GraphPadPrism, v.

[4] = target: T2, Cdk10/CycQ; test: as above; format: biochemical; settings: 200 nM kinase, 1 mM ATP, 5 mM Mg2+, 50 µM c-MYC (17-167) as substrate
[5] = test system: Cdk10; set-up: method as in PMID 29251720; settings: cited from earlier work

T2 sequence (Q15131 whole entry): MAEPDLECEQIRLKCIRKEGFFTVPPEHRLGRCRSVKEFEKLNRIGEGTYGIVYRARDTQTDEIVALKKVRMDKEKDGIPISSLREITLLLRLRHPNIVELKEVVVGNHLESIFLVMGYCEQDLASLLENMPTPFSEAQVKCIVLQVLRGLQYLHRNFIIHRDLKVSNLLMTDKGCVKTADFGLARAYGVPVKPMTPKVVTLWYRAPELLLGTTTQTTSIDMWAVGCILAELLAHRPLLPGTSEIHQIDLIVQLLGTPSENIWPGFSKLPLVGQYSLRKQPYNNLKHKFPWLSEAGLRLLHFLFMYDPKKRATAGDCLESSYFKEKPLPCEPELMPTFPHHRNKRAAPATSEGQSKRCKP
T2 sequence (Q8N1B3 whole entry partner): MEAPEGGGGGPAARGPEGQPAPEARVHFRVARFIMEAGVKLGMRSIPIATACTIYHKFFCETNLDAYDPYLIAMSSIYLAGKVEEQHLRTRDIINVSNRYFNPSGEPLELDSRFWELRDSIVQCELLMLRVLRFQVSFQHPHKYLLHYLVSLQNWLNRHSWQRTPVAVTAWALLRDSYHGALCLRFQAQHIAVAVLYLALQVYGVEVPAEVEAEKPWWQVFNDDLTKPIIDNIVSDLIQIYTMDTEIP
T1 sequence (P50750 whole entry, species assumed): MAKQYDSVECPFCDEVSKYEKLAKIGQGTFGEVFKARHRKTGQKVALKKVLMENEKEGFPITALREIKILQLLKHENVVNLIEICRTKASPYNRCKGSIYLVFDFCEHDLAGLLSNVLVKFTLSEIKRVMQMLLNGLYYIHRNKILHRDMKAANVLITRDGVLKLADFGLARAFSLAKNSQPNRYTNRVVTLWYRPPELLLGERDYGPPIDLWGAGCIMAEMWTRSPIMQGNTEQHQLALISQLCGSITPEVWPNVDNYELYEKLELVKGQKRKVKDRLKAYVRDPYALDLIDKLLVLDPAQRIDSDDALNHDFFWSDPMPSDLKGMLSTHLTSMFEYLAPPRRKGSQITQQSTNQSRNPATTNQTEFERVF
T1 sequence (O60563 1-272 partner limits assumed, species assumed): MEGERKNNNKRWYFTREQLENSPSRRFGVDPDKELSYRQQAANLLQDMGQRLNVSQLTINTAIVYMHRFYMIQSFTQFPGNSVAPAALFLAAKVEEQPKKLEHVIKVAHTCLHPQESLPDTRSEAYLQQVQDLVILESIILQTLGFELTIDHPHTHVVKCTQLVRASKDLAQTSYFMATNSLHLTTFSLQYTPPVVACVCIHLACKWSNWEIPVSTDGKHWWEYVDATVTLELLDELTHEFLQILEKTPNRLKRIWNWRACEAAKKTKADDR

Times more potent towards Cdk9 than Cdk10 [3]	Cross reactivity with Cdk10 (effect of inhibitor on Cdk10) [3]	Structure (SMILES)	also measured
at least 5 times	–	CC(C)(C)c1cnc(CSc2cnc(NC(=O)C3CCNCC3)s2)o1 [SNS-032]	Binding to Cdk10 [1]: identified binding to Cdk10
–	did not observe any considerable effect	CN(C)C/C=C/C(=O)Nc1ccc(C(=O)Nc2cccc(Nc3ncc(Cl)c(-c4c[nH]c5ccccc45)n3)c2)cc1 [THZ-1]	–
–	did not observe any considerable effect	CN(C)C/C=C/C(=O)Nc1ccc(C(=O)N2CCC[C@@H](Nc3ncc(Cl)c(-c4c[nH]c5ccccc45)n3)C2)cc1 [THZ-531]	–

Continued, compound first:

Structure (SMILES)	Times more potent towards Cdk9 than Cdk10 [3]	Cross reactivity with Cdk10 (effect of inhibitor on Cdk10) [3]	also measured
COCC(C)NC1CCC(Nc2cc(-c3cccc(NCC4(C#N)CCOCC4)n3)c(Cl)cn2)CC1 (centres unmarked) [NVP-2]	at least 5 times	–	Binding to Cdk10 [1]: identified binding to Cdk10; IC50 [2]: 58 nM; IC50 [4]: 1040 nM
Cc1cc(O)c(-c2ccc([C@@H](C)CN(C)C)cc2)c2c1[nH]c(=O)c1sccc12 [OTS964]	–	–	IC50 [2]: 138000 nM; IC50 [4]: 5370 nM
CC(C)(C)c1cnc(CSc2cnc(NC(=O)C3CCN(CC(=O)NCCOCCOCCOCCNc4cccc5c4C(=O)N(C4CCC(=O)NC4=O)C5=O)CC3)s2)o1 (centres unmarked) [THAL-SNS-032]	–	–	Degradation of Cdk10 [5]: degrades Cdk10 only after a longer incubation period
C=CC(=O)Nc1ccc(C(=O)Nc2[nH]nc3c2CN(C(=O)N[C@H](CN(C)C)c2ccccc2)C3(C)C)cc1 [YKL-5-124]	–	did not observe any considerable effect	–
CCN1CCN(Cc2ccc(Nc3ncc(F)c(-c4cc(F)c5nc(C)n(C(C)C)c5c4)n3)nc2)CC1 [abemaciclib]	–	did not observe any considerable effect	–
CCc1cnn2c(NCc3ccc[n+]([O-])c3)cc(N3CCCC[C@H]3CCO)nc12 [dinaciclib]	at least 5 times	–	IC50 [4]: 298 nM
CN1CC[C@H](c2c(O)cc(O)c3c(=O)cc(-c4ccccc4Cl)oc23)[C@H](O)C1 [flavopiridol]	at least 5 times	–	–
CC(=O)c1c(C)c2cnc(Nc3ccc(N4CCNCC4)cn3)nc2n(C2CCCC2)c1=O [palbociclib]	–	did not observe any considerable effect	–
